Reference: paper PMC8786148, “The effects of magainin 2-derived and rationally designed antimicrobial peptides on Mycoplasma pneumoniae” (PLoS ONE, 2022)
Marks after values point to notes of the source that are not given here.

What was measured:
[1] = tested on: M. pneumoniae strains FH, M52, Mac, Bru, and M129-B7; assay: Propidium iodide (PI) uptake assay, membrane disruption; format: cell-based, Mycoplasma pneumoniae; settings: 10 μmol/L AMP, PI 5 μg/mL in PBS, triplicate
Description: We performed the PI uptake assays based on the previously described method with modification for M. pneumoniae. M. pneumoniae strains FH, M52, Mac, Bru, and M129-B7 were cultured as described above. Briefly, the 90 mL culture was done in PPLO-based medium for 6 days to observe the medium color change from red to yellow. The mycoplasma in the culture medium was centrifuged at 11,740g for 30 min at 4°C, and the precipitation was suspended in 20 mL phosphate buffered saline (PBS) by passing through a 60 mm-length 25-gauge needle (Top Corporation, Tokyo, Japan) three times. The suspension was centrifuged again at 11,740g for 30 min at 4°C, and 2.25 mL PBS was added to the precipitation. The 2× mycoplasma suspension was prepared by passing through a 60 mm-length 25-gauge needle five times. When using heat-killed M. pneumoniae (HKMp), the 2× suspension was heated at 95°C for 10 min. The 2× PI assay reaction mix based on PBS containing 20 μmol/L of an antimicrobial peptide or saline, and 10 μg/mL PI (Dojindo, Tokyo, Japan). Each assay was performed with a 96-well black flat-bottomed plate (PerkinElmer, Waltham, MA, USA) using a final cell volume of 100 μL prepared by mixing 2× mycoplasma suspension and 2× PI assay reaction mix at 1:1 in volume ratio. The intercalation fluorescence of PI was measured by using an Infinite 200 Pro F Plex microplate reader (Tecan, Zürich, Switzerland) every 2 min, with an excitation filter at 535 nm (half width: 25 nm) and an emission filter at 620 nm (half width: 20 nm). The averages and standard deviations of the fluorescent intensities was calculated, and normalised by an average fluorescence between 10 and 20 min of HKMp as 100% relative fluorescence, and by a minimum average fluorescence between 0 and 20 min of whole data as 0% relative fluorescence.

[2] = tested on: Staphylococcus aureus; parameters: method as in PMID 28789896, PMID 31303986, PMID 33369262; settings: previously reported; cited from earlier work
[3] = tested on: Mycoplasma pneumoniae FH; assay: Killing assay, strain FH; settings: 30 μmol/L AMP, 3 days; for Killing assay result compared with saline: Welch's t test, p < 0.005; for Cell numbers (CFU/mL) after treatment with antimicrobial peptides, killing assay: initial 10^6 CFU/mL, triplicate, mean, saline 3.59×10^6
[4] = previously reported; cited from earlier work
[5] = tested on: Mycoplasma pneumoniae FH; assay: Biofilm assay (crystal violet, absorbance at 550 nm), strain FH; settings: initial 10^5 CFU/mL; for Effect in the biofilm assay: 0% CO2, up to 30 μmol/L; for Concentration with statistically significant effect in the biofilm assay: 0% CO2, 6-8 days at 37°C, p < 0.005, Shirley-Williams test
[6] = tested on: Pseudomonas aeruginosa; parameters: method as in PMID 28789896, PMID 31303986, PMID 33369262; settings: previously reported; cited from earlier work
[7] = tested on: Staphylococcus epidermidis; parameters: method as in PMID 28789896, PMID 31303986, PMID 33369262; settings: previously reported; cited from earlier work
[8] = tested on: Escherichia coli; parameters: method as in PMID 28789896, PMID 31303986, PMID 33369262; settings: previously reported; cited from earlier work
[9] = tested on: Mycoplasma pneumoniae FH; assay: Colorimetric assay (absorbance at 560 nm), strain FH; settings: initial 10^5 CFU/mL, 0% CO2, up to 30 μmol/L
[10] = tested on: Mycoplasma pneumoniae Mac; assay: Killing assay, strain Mac; settings: AMP 30 μmol/L, 3 days, initial 10^6 CFU/mL, triplicate, mean, saline 4.19×10^6
[11] = tested on: Mycoplasma pneumoniae M52; assay: Colorimetric and biofilm assays, strain M52; settings: up to 30 μmol/L, Shirley-Williams test
[12] = tested on: Mycoplasma pneumoniae Bru; assay: Killing assay, strain Bru; settings: AMP 30 μmol/L, 3 days, initial 10^6 CFU/mL, triplicate, mean, saline 3.48×10^6
[13] = tested on: Mycoplasma pneumoniae M129-B7; assay: Killing assay, strain M129-B7; settings: AMP 30 μmol/L, 3 days, initial 10^6 CFU/mL, triplicate, mean, saline 3.79×10^6
[14] = tested on: Mycoplasma pneumoniae Mac; assay: Colorimetric and biofilm assays, strain Mac; settings: biofilm assay, p < 0.005
[15] = tested on: Mycoplasma pneumoniae M129-B7; assay: Colorimetric and biofilm assays, strain M129-B7; format: cell-based; settings: strain M129-B7; biofilm assay; p < 0.005
[16] = tested on: Mycoplasma pneumoniae M52; assay: Killing assay, strain M52; settings: AMP 30 μmol/L, 3 days, initial 10^6 CFU/mL, triplicate, mean, saline 3.62×10^6
[17] = tested on: Mycoplasma pneumoniae Bru; assay: Colorimetric and biofilm assays, strain Bru; settings: biofilm assay, p < 0.005
[18] = five strains, read every 2 min up to 20 min
[19] = strains FH, M129-B7, and M52, up to 20 min

Substance | PI fluorescence compared with live Mp without peptide [1, 18] | MIC, Gram-positive, S. a. [2] [µM] | Killing assay result compared with saline [3] | Cell numbers (CFU/mL) after treatment with antimicrobial peptides, killing assay [3] | Haemolysis (concentration with haemolytic effect) [4] [µmol/L] | Effect in the biofilm assay [5] | MIC, Gram-negative, P. a. [6] [µM] | MIC, Gram-positive, S. e [7] [µM] | MIC, Gram-negative, E. c. [8] [µM] | Effect in the colorimetric assay [9] | Concentration with statistically significant effect in the biofilm assay [5] [µmol/L] | PI fluorescence compared with live Mp without peptide [1, 19] | Titre (CFU/mL), killing assay [10] | Effect in the biofilm assay [11] | Titre (CFU/mL), killing assay [12] | Titre (CFU/mL), killing assay [13] | Concentration with statistically significant effect in the biofilm assay [14] [µmol/L] | Concentration with statistically significant effect in the biofilm assay [15] [µmol/L] | Titre (CFU/mL), killing assay [16] | Concentration with statistically significant effect in the biofilm assay [17] [µmol/L]
H-GIGKFLHSAKKFGKAFV-NH2 [Mag2-17base] | fluorescence of live Mp without any peptides were higher | 50 | limited influence on the growth | 4.86×10^6 CFU/mL | >100 | no difference | 3.13 | 12.5 | 3.13 | – | – | – | – | – | – | – | – | – | – | –
H-GIGKFLHSAKKFGKAFVGEIMNS-NH2 [Mag2, magainin 2, natural AMP isolated from the skin of Xenopus laevis (the African clawed frog)] | fluorescence of live Mp without any peptides were higher | 100 | limited influence on the growth | 4.06×10^6 CFU/mL | – | – | 12.5 | 25 | 3.13 | no difference | 30 | – | – | – | – | – | – | – | – | –
H-GIGKFLHSUKKFGKUFV-NH2 [17base-Aib, Mag2-17base derivative with 2-aminoisobutyric acid (Aib) insertions] | slight fluorescent shift | 12.5 | limited influence on the growth | 3.75×10^6 CFU/mL | >100 | no difference | 1.56 | 3.13 | 3.13 | – | – | fluorescence of live Mp without any peptides were higher | – | – | – | – | – | – | – | –
H-GIGKFLHSZKKFGKZFV-NH2 [17base-Ac6c, Mag2-17base derivative with 1-aminocyclohexylcarboxylic acid (Ac6c) insertions] | the fluorescence arose | 3.13 | significant difference | 1.11×10^6 CFU/mL | 3 | – | 6.25 | 3.13 | 3.13 | – | 30 | – | – | – | – | – | – | – | – | –
H-GIKKFLKSZKKFVKZFK-NH2 [17base-Hybrid, Mag2-17base derivative with Ac6c and lysine insertions] | the fluorescence arose | 3.13 | significant difference | 3.50×10^5 CFU/mL | – | – | 3.13 | 1.56 | 3.13 | – | 8 | – | 5.80×10^4 ^b CFU/mL | slight drop of biofilm production | 1.46×10^5 ^b CFU/mL | 2.21×10^5 ^b CFU/mL | ≤ 30 | ≤ 30 | 1.16×10^5 ^b CFU/mL | ≤ 30
H-KKKLAKLKLGAKLKLKGKLGA-NH2 [Random, rationally designed AMP, helical structure and positions of positively charged lysine residues] | fluorescence of live Mp without any peptides were higher | 100 | limited influence on the growth | 4.93×10^6 CFU/mL | – | no difference | 3.13 | 6.25 | 12.5 | – | – | – | – | – | – | – | – | – | – | –
H-KLLKKAGKLLKKAGKLLKKAG-NH2 [Stripe, rationally designed AMP, helical structure and positions of positively charged lysine residues] | – | 12.5 | limited influence on the growth | 3.71×10^6 CFU/mL | – | no difference | 1.56 | 1.56 | 3.13 | – | – | fluorescence of live Mp without any peptides were higher | – | – | – | – | – | – | – | –
